Laboratory results from patent US20180249709A1, “HERBICIDE COMPOSITIONS AND METHODS FOR CONTROLLING GROWTH OF PLANTS OF THE BUCKTHORN FAMILY” (priority 2016, published 2018).
Entries after “also recorded” stand apart in the source; their conditions may differ.

Columns and labels:
Buckthorn seeds = experiment: Seed germination of Buckthorn seeds on filter paper in Petri plates; type: in vivo
Experimental: Juglone was purchased from Sigma Aldrich and diluted in sterile water to a 10^−3 M stock solution for 24 hours at 40° C., then further diluted to obtain 10^−4, 10^−5 and 10^−6 M solutions. Seeds were previously collected from 3 different sites (Site 1: Iroquois Shoreline Woods Park in Oakville, Ontario, Canada; Site 2: Ignatius Jesuit Centre in Guelph, Ontario, Canada, and Site 3: Snyder Flats Conservation Area in Bloomingdale, Ontario, Canada) and then placed into cold stratification. For this experiment, seeds were removed from 40 day cold stratification and surface sterilization was done for 30 s in 3% hydrogen peroxide followed by two one minute sterile water rinses. Sheets of 90 mm filter paper were placed on the bottom of Petri plates, followed by 15 seeds, and then topped with another sheet of filter paper. A pipette then dispensed 2 ml of treatment or control onto each plate directly onto the top filter paper, thereby wetting the seeds and bottom filter paper as well. Five reps (plates) were done for each site at each treatment. Plates were then placed into Ziploc bags (to maintain humidity) and kept at 24° C. in the dark. Plates were checked every day for germination (i.e. emergence of the radicle). The number of germinated seeds per plate was recorded daily. Using Microsoft Excel, a graph was created to show the average number of germinated seeds per group with standard error. Statistics were done using JMP statistical software.

Buckthorn seed radicles = experiment: Radicle elongation of germinated Buckthorn seeds over 7 days; type: in vivo; conditions: for radicle growth between treatments of various concentrations: MANOVA repeated measures
Experimental: From the seed germination study (above), the first five (5) germinated Buckthorn seeds from each group (same treatment, same site) were set aside for radicle elongation measurements (see FIG. 6). These five were placed together in new Petri plates between two new filter papers dosed with treatment (i.e. same filter setup & treatment as germination study). For each of the 75 germinated seeds (5×15 groups), the initial length of the emerged radicle was measured. The length of the radicle was then re-measured daily for a total of 7 days. […] Therefore, on Day 7 all radicles were also sacrificed and scanned on an Epson® flatbed scanner then analyzed off-label by WinRhizo™ software, which measured the full length as “Brother 1” of the inputted “root”. Using Microsoft Excel, a graph was created to show the average length of radicle 7 days after emergence with standard error, when measured by hand. WinRhizo Day 7 measurements were compared to hand-measured Day 7 measurements to check for accuracy. Another graph was created to show the average growth of the radicle over time. Statistics were done using JMP™ statistical software.

O=C1C=CC(=O)c2c(O)cccc21 [Juglone, 5-hydroxy-1,4-naphthalenedione]
percentage of Buckthorn seeds that germinated, treatment vs control (Buckthorn seeds; 10^-5 M Juglone): consistently significantly lower
percentage of Buckthorn seeds that germinated, treatment vs control (Buckthorn seeds; 10^-6 M Juglone): consistently significantly lower; also recorded: significantly effective in preventing seed germination
overall effect on germination, difference between the treatments (Buckthorn seeds; Day 12, Least Squares Model, control and 10^-3 to 10^-6 M Juglone, F(4,64)=6.2, p=0.003): significant difference
percentage of Buckthorn seeds that germinated, trend with concentration (Buckthorn seeds; Juglone concentration increased above 10^-5 M): appeared to increase
colour / appearance of radicles vs control (Buckthorn seed radicles; 10^-3 M Juglone, Day 7): darker brown/black; also recorded: possible damaging effect
radicle elongation (Buckthorn seed radicles; 10^-3 M Juglone, Ignatius Jesuit Centre site, MANOVA, hand-measured): limited radicle elongation significantly
growth of radicles vs controls (Buckthorn seed radicles; 10^-3 M Juglone, all three sites, seven days, T-tests): significantly reduced growth; also recorded: significantly reduced radicle elongation
growth of radicles vs controls (Buckthorn seed radicles; 10^-4 M Juglone, Iroquois Shoreline Woods Park site and Snyder Flats Conservation Area site only, T-tests): significantly reduced growth
radicle growth among the treatments (net WinRhizo values) (Buckthorn seed radicles; ANOVA 2-way with replication, p=0.0005): significant difference in growth
radicle growth between treatments of various concentrations (Buckthorn seed radicles; Ignatius Jesuit Centre site, hand-measured, F(4,19)=0.73, p=0.0264): significant difference
radicle growth between treatments of various concentrations (Buckthorn seed radicles; Iroquois Shoreline Woods Park site, hand-measured, F(4,20)=0.38, p=0.1485): no significant difference
radicle growth between treatments of various concentrations (Buckthorn seed radicles; Snyder Flats Conservation Area site, hand-measured, F(4,19)=0.17, p=0.5339): no significant difference
growth of radicles vs controls (Buckthorn seed radicles; more dilute concentrations (than 10^-4 M), seed from any site): Growth reduction was not achieved
